Columns and labels:
[1] = tested on: Monocotyledonous and dicotyledonous test plants; assay: Example B1: herbicidal action prior to emergence (pre-emergence), 500 g/ha; assay type: in vivo; details: 13 days after application, 0 = no damage, 100 = plants completely dead; for ALOMY herbicidal effect (visual assessment, percentage scale): Alopecurus myosuroides (slender foxtail); for AMARE herbicidal effect (visual assessment, percentage scale): Amaranthus retroflexus (redroot pigweed); for ECHCG herbicidal effect (visual assessment, percentage scale): Echinochloa crus-galli (barnyard grass); for STEME herbicidal effect (visual assessment, percentage scale): Stellaria media (chickweed)
Experimental: (§1) Monocotyledonous and dicotyledonous test plants were sown in seed trays in standard compost. The trays were watered twice daily or as required. The chemicals were applied by track sprayer at the soil surface. The application was carried out with an aqueous suspension of the test substances, prepared as a formulation of 50% acetone in water with 0.5% Tween 20™ (CAS RN 9005-64-5), to achieve a field equivalent of 1000 l/ha. The application rate of the test substances was 500 g/ha. A visual assessment of the herbicidal effect was made at 13 days after application. The following percentage scale was used for assessment: 0, 5, 10, 20, 30, 40, 50, 60, 70, 80, 90, 95, 100 (where 0 is no damage to plants and 100 is plants are completely dead).

[2] = tested on: Alopecurus myosuroides (slender foxtail); assay: Example B2: herbicidal action post emergence, 500 g/ha; assay type: in vivo; details: applied to the foliage, 13 days after application, 0 is no damage to plants, 100 is plants completely dead
Experimental: as §1, with “standard compost and were grown for eight days.” for “standard compost.”, “sprayer to” for “sprayer at”, “the foliage.” for “the soil surface.”, “(where O” for “(where 0”

[3] = tested on: Amaranthus retroflexus (redroot pigweed); assay: as above; assay type: in vivo; details: applied to the foliage, 13 days after application, 0 is no damage to plants, 100 is plants completely dead
Experimental: as §1, with “standard compost and were grown for eight days.” for “standard compost.”, “sprayer to” for “sprayer at”, “the foliage.” for “the soil surface.”, “(where O” for “(where 0”

[4] = tested on: Echinochloa crus-galli (barnyard grass); assay: as above; assay type: in vivo; details: applied to the foliage, 13 days after application, 0 is no damage to plants, 100 is plants completely dead
Experimental: as §1, with “standard compost and were grown for eight days.” for “standard compost.”, “sprayer to” for “sprayer at”, “the foliage.” for “the soil surface.”, “(where O” for “(where 0”

[5] = tested on: Stellaria media (chickweed); assay: as above; assay type: in vivo; details: applied to the foliage, 13 days after application, 0 is no damage to plants, 100 is plants completely dead
Experimental: as §1, with “standard compost and were grown for eight days.” for “standard compost.”, “sprayer to” for “sprayer at”, “the foliage.” for “the soil surface.”, “(where O” for “(where 0”

[6] = tested on: Monocotyledonous and dicotyledonous test plants; assay: Example B3: herbicidal action prior to emergence (pre-emergence), 96-cell seed trays, 1000 g/ha; assay type: in vivo; set-up: key: 0 is no damage to plant; 5 is total damage to plant; details: 9 days after application
In short: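 Soil-surface pre-emergence spray at 1000 g/ha in water with 10% DMSO (1000 l/ha equivalent), applied one day after sowing in sterilised soil. Plants kept in a climatic chamber (24/19 °C day/night, 13 h light, 50-60% humidity); damage scored visually 0-5 at 9 days after application.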

Row | melting point [°C] | Compound | ALOMY herbicidal effect (visual assessment, percentage scale) [1] [%] | AMARE herbicidal effect (visual assessment, percentage scale) [1] [%] | ECHCG herbicidal effect (visual assessment, percentage scale) [1] [%] | STEME herbicidal effect (visual assessment, percentage scale) [1] [%] | ALOMY, visual assessment of the herbicidal effect [2] [%] | AMARE, visual assessment of the herbicidal effect [3] [%] | ECHCG, visual assessment of the herbicidal effect [4] [%] | STEME, visual assessment of the herbicidal effect [5] [%] | AGSTE herbicidal effect (visual assessment, scale 0-5) ([6]; Agrostis tenius (Colonial bentgrass)) | AMARE herbicidal effect (visual assessment, scale 0-5) ([6]; Amaranthus retroflexus (redroot pigweed)) | DIGSA herbicidal effect (visual assessment, scale 0-5) ([6]; Digitaria sanguinalis (hairy finger-grass)) | POATR herbicidal effect (visual assessment, scale 0-5) ([6]; Poa trivialis (rough blue grass)) | SETIT herbicidal effect (visual assessment, scale 0-5) ([6]; Setaria italica (foxtail millet))
1 | – | CC(c1c(C(F)(F)F)nn(C)c1OCC(F)(F)F)S(=O)(=O)c1ncc(Cl)s1 (racemic) [1.096] | 95 | 95 | 95 | 95 | 90 | 80 | 80 | 70 | 5 | 5 | 5 | 5 | 5
2 | 118 to 120 | Cn1nc(C(F)(F)F)c(CSc2ncc(C(N)=O)s2)c1OCC(F)(F)F [1.121, 2-[1-methyl-5-(2,2,2-trifluoro-ethoxy)-3-trifluoromethyl-1H-pyrazol-4-ylmethylsulfanyl]-thiazole-5-carboxylic acid amide] | – | – | – | – | – | – | – | – | – | – | – | – | –
3 | – | Cn1nc(C(F)(F)F)c(C[S+]([O-])c2ncc(Br)s2)c1OCC(F)(F)F (stereo not drawn) [Compound No. 1.002, 5-bromo-2-[1-methyl-5-(2,2,2-trifluoroethoxy)-3-trifluoromethyl-1H-pyrazol-4-ylmethanesulfinyl]-thiazole] | 95 | 100 | 95 | 100 | 95 | 95 | 95 | 90 | – | – | – | – | –
4 | – | Cn1nc(C(F)(F)F)c(CSc2ncc(Br)s2)c1Cl [Compound No. 1.004, 5-bromo-2-(5-chloro-1-methyl-3-trifluoromethyl-1H-pyrazol-4-ylmethylsulfanyl)-thiazole] | 95 | 95 | 95 | 60 | 80 | 70 | 90 | 60 | – | – | – | – | –
5 | – | Cn1nc(C(F)(F)F)c(CS(=O)(=O)c2ncc(Br)s2)c1Cl [Compound No. 1.006, 5-bromo-2-(5-chloro-1-methyl-3-trifluoromethyl-1H-pyrazol-4-ylmethanesulfonyl)-thiazole] | 90 | 95 | 95 | 30 | 70 | 30 | 80 | 0 | – | – | – | – | –
6 | – | Cn1nc(C(F)(F)F)c(CSc2ncc(Cl)s2)c1OCC(F)(F)F [Compound No. 1.013] | 95 | 95 | 80 | 95 | 60 | 60 | 50 | 80 | – | – | – | – | –
7 | 78 to 79.5 | Cn1nc(C(F)(F)F)c(C(Cl)S(=O)(=O)c2ncc(Br)s2)c1Cl (stereo not drawn) [Compound No. 1.030, 5-bromo-2-[chloro-(5-chloro-1-methyl-3-trifluoromethyl-1H-pyrazol-4-yl)-methanesulfonyl]-thiazole] | – | – | – | – | – | – | – | – | – | – | – | – | –
8 | 186 to 188 | Cn1nc(C(F)(F)F)c(C(F)(F)S(=O)(=O)c2ncc(Br)s2)c1Cl [Compound No. 1.033, 5-bromo-2-[(5-chloro-1-methyl-3-trifluoromethyl-1H-pyrazol-4-yl)-difluoro-methanesulfonyl]-thiazole] | – | – | – | – | – | – | – | – | – | – | – | – | –
9 | – | Cn1nc(C(F)(F)F)c(C(F)(F)S(=O)(=O)c2ncc(Cl)s2)c1OCC(F)(F)F [Compound No. 1.037] | 60 | 100 | 95 | 95 | 90 | 95 | 20 | 70 | – | – | – | – | –
10 | – | Cn1nc(C(F)(F)F)c(CSc2ncc(Cl)s2)c1OC(F)F [Compound No. 1.056] | 90 | 95 | 95 | 90 | 95 | 70 | 70 | 80 | – | – | – | – | –
11 | – | Cn1nc(C(F)(F)F)c(CSc2ncc([N+](=O)[O-])s2)c1OCC(F)(F)F [Compound No. 1.061] | 80 | 100 | 95 | 95 | 40 | 40 | 80 | 40 | – | – | – | – | –
